Measurements: US11572590B2, “Methods for evaluating tumor cell spheroids using 3D microfluidic cell culture device” (Dana-Farber Cancer Institute, Inc., priority 2017, dated 2023)

Tests used:
[1] = test system: human CD4+ and CD8+ T cells; test: IFNγ secretion by anti-CD3/anti-CD28 stimulated T cells; format: cell-based; conditions: dose-titration, 96 hours
Procedure: Freshly isolated human CD4+ and CD8+ T cells were obtained from AllCells (Alameda, Calif., USA). Cells were spun down and resuspended in serum free Xvivo15 media (Lonza Walkersville, Inc., Chicago, Ill., USA) supplemented with 5 ng/mL […] and incubated overnight at 37° C. Cells were plated on anti-CD3 coated plates (5 μg/mL OKT3, eBioscience, Dallas, Tex., USA, overnight) with 2 μg/mL anti-CD28 (eBioscience, Dallas, Tex., USA). Cells are treated in replicate plates with a dose-titration of Compound 1 for 24 hours for IL-2 and 96 hours for IFNγ. IL-2 and IFNγ in the supernatant were measured using single- or multi-plex immunoassay (Mesoscale Discovery, Rockville, Md., USA). Jurkat T cell leukemia cells (clone E61 obtained from ATCC) plated on anti-CD3 coated plates were treated with a dose titration of Compound 1 for 24 hours. IL-2 in the supernatant was measured as described above.

[2] = test system: CT26 MDOTS; test: Bead-based cytokine profiling of CT26 MDOTS; format: cell-based, murine; conditions: Cmpd1 (1 μM) ± anti-PD-1 (10 μg/mL)
Procedure: (§1) Fresh tumor specimens (murine and human patients) were received in media (DMEM) on ice and minced in a 10 cm dish (on ice) using sterile forceps and scalpel. Minced tumor was resuspended in DMEM ([…], […] sodium pyruvate, 1:100 penicillin-streptomycin) (Corning CellGro, Manassas, Va.) +10% FBS (Gemini Bio-Products, West Sacramento, Calif.), 100 U/mL collagenase type IV (Life Technologies, Carlsbad, Calif.), and 15 mM HEPES (Life Technologies, Carlsbad, Calif.), except for CT26 tumors that were prepared in RPMI. Samples were pelleted and resuspended in 10-20 mL media. Red blood cells were removed from visibly bloody samples using RBC Lysis Buffer (Boston Bio-Products, Ashland, Mass.). […]
(§2) Two multiplex assays were performed utilizing a bead-based immunoassay approach, the Bio-Plex Pro™ Human Cytokine 40-plex Assay (Cat #171AK99MR2) and Bio-Plex Pro™ Mouse Cytokine Panel 1, 23-plex (Cat #M60009RDPD) on a Bio-plex 200 system (Cat #171000201). […] Fold changes relative to the MDOT/PDOT control were calculated and plotted as log 2FC. Lower and upper limits of quantitation (LLOQ/ULOQ) were imputed from standard curves for cytokines above or below detection. […]

[3] = test system: B16F10 MDOTS; test: Bead-based cytokine profiling of B16F10 MDOTS; format: cell-based, murine; conditions: Cmpd1 (1 μM) ± αPD-1
Procedure: as §1, §2

[4] = test system: B16F10 lung metastases; test: B16F10 tail vein injection model, lung metastases; format: in vivo, mouse; conditions: Compound 1 40 mg/kg daily for 13 days ± anti-PD-L1 10 mg/kg
Procedure: Combination studies were performed by vivoPharm (Hummelstown, Pa., USA). All procedures used in the performance of these studies were carried out in accordance with vivoPharm's Standard Operating Procedures, with particular reference to US_SOPvP_EF0314 “General Procedures for Efficacy Studies.” CT26 colon carcinoma cells (1×10^6 cells/mouse in 100 μL, passage 2-3) were re-suspended in serum-free DMEM and implanted in the upper right flank of 11-12 week old female Balb/c mice (Charles River Laboratories). Mice were randomized into four groups of 10 using a matched pair distribution method based on tumor size for CT26. Treatment was initiated 12 days post-inoculation with mean tumor volume at start of dosing of 125.85 mm^3. Vehicle or Compound 1 (40 mg/kg) was administered by oral gavage daily for 26 days and isotype control or a reverse chimera anti-PD-L1 cloned from literature reports (e.g., Deng, R. et al. MAbs (2016), the content of which is incorporated herein by reference in entirety) and placed into a mouse IgG1 framework (10 mg/kg) was administered every 5 days for a total of six doses. Investigators were not blinded to treatment groups. […] Mice were sacrificed on Day 13 and lung metastases were quantified (small ≤1 mm, medium >1 mm and ≤3 mm, large >3 mm). No large lung metastases were detected.

SMILES: N#Cc1cc(-c2ncnc(Nc3ccc(N4CCN(C5COC5)CC4)cc3)n2)ccc1OC1CCOCC1 [Compound 1, 5-(4-((4-(4-(oxetan-3-yl)piperazin-1-yl)phenyl)amino)-1,3,5-triazin-2-yl)-2-((tetrahydro-2H-pyran-4-yl)oxy)benzonitrile]
- secretion of IFN-γ from purified CD4+ and CD8+ T cells [1]: enhanced secretion
- cytokines involved in activated innate immune responses (e.g., G-CSF) in CT26 MDOTS [2]: concomitant induction
- levels of CCL4, CCL3, and IL-1β in CT26 MDOTS [2]: Decreased levels
- immune suppressive chemokines (e.g., CCL2, CCL5) in B16F10 MDOTS [3]: downregulation
- induction of G-CSF and related innate immune response cytokines in B16F10 MDOTS [3]: without concomitant induction
- sensitization of B16F10 tail vein model to PD-L1 blockade (lung metastases) [4]: could not be sensitized
